# Measurements: patent publication US12029730B2, “Pharmaceutical composition for preventing or treating cancer, containing N-1H-benzimidazol-2-yl-3-(1H-pyrrole-1-yl)benzamide as active ingredient” (KOREA INSTITUTE OF RADIOLOGICAL & MEDICAL SCIENCES, priority 2018, dated 2024)
# Assays:
# Format in all cases: cell-based, human
# [1] = test system: MCF10A cells; experiment: WST-8 cell viability assay, normal cell line MCF10A; conditions: 3.70, 11.11, 33.33 and 100 μM, FIG. 6
# Protocol: (§1) In addition, the cell line in this experiment was distributed from ATCC (American Type Culture Collection; Manassas, VA). Human-derived tumor cell lines, breast cancer cell lines MCF7 and T47D was cultured in DMEM medium containing 10% fetal bovine serum (FBS; HyClone, South Logan, UT) and 1% penicillin/streptomycin (Corning, NY, USA) at 37° C. and 5% CO2, and the BT549 breast cancer cell line was cultured in RPMI 1640 (Welgene, Daegu, Korea) as a medium used under the same conditions. Human-derived normal cell line MCF10A was cultured in DMEM/F12 (Invitrogen) medium containing 5% horse serum (Invitrogen), 1% penicillin/streptomycin, 20 ng/ml EGF (Peprotech, London, UK), […] (Sigma-Aldrich, MO, USA), 100 ng/ml cholera toxin (Cholera Toxin, Sigma-Aldrich) and 10 μg Insulin (Sigma-Aldrich) at 37° C. and 5% CO2.
# (§2) Briefly, MCF7 and MCF10A cells were seeded into 96-well plates, incubated for 24 hours, and then was treated with 42 inhibitor candidates. Among the compounds, the multi-AGC kinase inhibitor AT13148 was used as a positive control. Thereafter, the absorbance was measured at 450 nm using a Versamax microplate reader (Molecular Devices, CA, USA), and the results of the experiment were shown in FIG. 1A.
# (§3) In order to confirm whether the selected MKI-1 can kill only cancer cells, an experiment was performed by treating with MKI-1 and measuring whether the cell viability of breast cancer cell lines and normal cell lines was changed. WST-8 analysis (Cyto X™ cell viability assay kit, LPS solution, Daejeon, Korea) was performed according to the manufacturer's protocol. Cancer cells MCF7 and BT549 and normal cell line MCF10A cells were inoculated into a 96-well plate, cultured for 24 hours, and then treated with MASTL kinase inhibitors at various concentrations (3.70, 11.11, 33.33 and 100 μM). Thereafter, the absorbance was measured at 450 nm using a Versamax micro plate reader (Molecular Devices, CA, USA), and the results were shown in FIG. 6.
# [2] = test system: MCF7 cells; experiment: Tumorsphere formation assay; conditions: MCF7, cultured 15 days, compared to DMSO, FIG. 8
# Protocol: A tumorsphere formation assay was performed in order to determine whether the selected MKI-1 can effectively reduce the formation of tumorsphere in cancer cells, Breast cancer cells MCF7 (2500-10000 cells) was suspended in serum-free DMEM/F12 (weIGENE) containing 1% penicillin, B-27 (1:50; invitrogen), 20 ng/mL epidermal cell growth factor (R&D Systems) and 20 ng/mL fibroblast growth factor (R&D Systems) and cultured on plates with low adhesion rate. After 24 hours, the cells were treated with MASTL kinase inhibitors (AT13148, MKI-1 and GKI-1), respectively, and cultured for 15 days, and then the diameter of the tumorsphere was measured and quantified, which was shown in FIG. 8.
# [3] = test system: MCF7 cells; experiment: WST-8 cell viability assay, breast cancer cell line MCF7; conditions: 3.70, 11.11, 33.33 and 100 μM, FIG. 6
# Protocol: as §1, §2, §3
# [4] = test system: BT549 cells; experiment: WST-8 cell viability assay, breast cancer cell line BT549; conditions: 3.70, 11.11, 33.33 and 100 μM, FIG. 6
# Protocol: as §1, §3
# [5] = test system: AKT; experiment: Western blotting of AKT and GSK-3 phosphorylation in MCF7 cells; conditions: western blot, FIG. 5
# Protocol: 20 μg of protein was separated by SDS-PAGE electrophoresis and transferred to a PVDF membrane, and the following specific antibodies were used: rabbit polyclonal antibody MASTL (Abgent); phospho-ENSA (Ser67)/ARPP19 (Ser62) (#5240), ENSA (#11915S), cleaved PARP (Asp214) (#9541), AKT (#9272), phospho-AKT (ser473) (#9271), phospho-GSK-3α/β (Ser21/9) (#9331), phospho-p70S6K (The 288) (#9205) and phospho-Chk2 (Thr68) (#2661; Cell Signaling Technology, MA); p70S6K (sc-230; Santa Cruz Biotechnology, CA, USA), phospho-H3 (S10) (06-570, Merck, NJ); mouse monoclonal antibody caspase-2 (#2224S). In addition, mouse […] antibody β-actin (C4; Santa Cruz Biotechnology, CA, USA) was used as a loading control, it was washed with 1×PBS/0.1% Tween 20, and the binding protein was detected using HRP-binding secondary antibody and improved chemiluminescence detection system. The remaining conditions of Western blotting were the same as in Example 3, and the image of the band was obtained by Amersham Imager 600 system (GE Healthcare Life Science) or X-Ray film (AG, HealthCare, SC, USA) and it was shown in FIG. 5.
# [6] = test system: MCF7 cells; experiment: 3D culture spheroid formation; conditions: MCF7 3D culture, AT13148 2 μM, GKI-1 10 μM, MKI-1 10 μM, FIG. 9
# Protocol: 3D culture was performed according to the protocol of the manufacturing company TheWell Bioscience. It was inoculated into 24-wells containing a DMEM mixture containing 10,000 MCF7 cells in an MCF7 cell:hydrogel solution in a ratio of 1:3 (v/v) and VitroGel™ 3D-RGD diluted with 0.1% PBS in a ratio of 1:3 (v/v) of a hydrogel:diH2O. Thereafter, incubation was performed at 37° C. for 15 minutes to stabilize the VitroGel 3D-RGD hydrogel. To cover the hydrogel, the same volume of DMEM as the hydrogel was added, and the next day, the hydrogel was treated with a DMSO base drug containing DMSO, AT13148 (2 μM), GKI-1 (10 μM) and MKI-1 (10 μM). The medium was exchanged every 2 days for 14 to 20 days.
# [7] = test system: MCF7 cells; experiment: Colony formation analysis; conditions: MCF7, cultured 15 days, compared to DMSO, FIG. 7
# Protocol: Colony formation analysis was performed to confirm whether the selected MKI-1 can effectively kill cancer cells. First, breast cancer cells MCF7 (500-1000 cells) were cultured in a 60 mm culture plate, and after 24 hours, it was treated with MASTL kinase inhibitors (AT13148, MKI-1 and GKI-1), respectively and cultured for 15 days. Cells were fixed and stained with […] to which methanol was added to quantify the number of colonies, which was shown in FIG. 7.
structure (smiles),measurement,setting,value
"NC[C@@](O)(c1ccc(Cl)cc1)c1ccc(-c2cn[nH]c2)cc1 [AT13148, reference compound]","cell viability, normal cell line MCF10A",[1],drastically reduced cell viability
same,tumorsphere diameter,[2],significantly decreased
same,"cell viability, MCF7",[3],drastically reduced cell viability
same,"cell viability, BT549",[4],drastically reduced cell viability
same,activation of AKT / phosphorylated GSK-3,[5],strongly inhibited the activation of AKT
same,size of cancer cell spheroid,[6],significantly reduced
same,number of cancer cell colonies,[7],significantly reduced
